# Like-named read-outs stand apart in the source and are kept apart here.
# System: Jurkat human T lymphocyte cell line
# Assay: Apoptosis assay (Annexin V) of compounds incubated with human serum
# Settings: for EC50: read-out: ED50 (nM) in apoptosis assay after incubation with serum, 37° C.
# Procedure, shortened: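 Test compounds at 20 mM were preincubated in pooled human serum at 37° C for varying times, then serially diluted to final 1–10,000 nM. Jurkat cells (1×10^5 per well) were exposed for 24 h at 37° C, and apoptosis was scored by Annexin V-FITC flow cytometry. ED50 came from dose-response curves, and % conversion was expressed relative to the triptolide ED50 in the same serum.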
# [1] = Table 3, human serum, 0 hr, 10000 nM
# [2] = Table 3, human serum, 48 hr, 1 nM
# [3] = Table 3, human serum, 48 hr, 3 nM
# [4] = Table 3, human serum, 48 hr, 10 nM
# [5] = Table 3, human serum, 48 hr, 30 nM
# [6] = Table 3, human serum, 48 hr, 100 nM
# [7] = Table 3, human serum, 48 hr, 300 nM
# [8] = Table 3, human serum, 48 hr, 1000 nM
# [9] = Table 3, human serum, 48 hr, 3000 nM
# [10] = Table 3, human serum, 48 hr, 10000 nM
# [11] = Table 4, serum, 48 hr, 10000 nM
# [12] = Table 5, human serum (48 hrs), 1 nM
# [13] = Table 5, human serum (48 hrs), 3 nM
# [14] = Table 5, human serum (48 hrs), 10 nM
# [15] = Table 5, human serum (48 hrs), 30 nM
# [16] = Table 5, human serum (48 hrs), 100 nM
# [17] = Table 5, human serum (48 hrs), 300 nM
# [18] = Table 5, human serum (48 hrs), 1000 nM
# [19] = Table 5, human serum (48 hrs), 3000 nM
# [20] = incubation time in human serum 0.5 hours
# [21] = incubation time in human serum 1 hour
# [22] = incubation time in human serum 24 hours
# [23] = incubation time in human serum 48 hours
# [24] = after 48 hr. incubation in human serum
smiles,measurement,setting,value
"CC(C)[C@]12O[C@H]1[C@@H]1O[C@]13[C@]1(O[C@H]1C[C@H]1C4=C(CC[C@@]13C)C(=O)OC4)[C@@H]2O [PG490, Triptolide]",% apoptotic cells at given concentration (nM),[1],94.9%
same,% apoptotic cells at given concentration (nM),[2],8.5%
same,% apoptotic cells at given concentration (nM),[3],8.5%
same,% apoptotic cells at given concentration (nM),[4],8.5%
same,% apoptotic cells at given concentration (nM),[5],26.2%
same,% apoptotic cells at given concentration (nM),[6],91.7%
same,% apoptotic cells at given concentration (nM),[7],93.4%
same,% apoptotic cells at given concentration (nM),[8],94.6%
same,% apoptotic cells at given concentration (nM),[9],95.2%
same,% apoptotic cells at given concentration (nM),[10],95.4%
same,% apoptotic cells at given concentration (nM),"Table 3, medium only, 10000 nM",96.5%
same,% apoptotic cells at given concentration (nM),"Table 4, medium, 10000 nM",93.4%
same,% apoptotic cells at given concentration (nM),"Table 4, serum, 0 hr, 10000 nM",92.1%
same,% apoptotic cells at given concentration (nM),"Table 4, serum, 48 hr, 0.03 nM",7.0%
same,% apoptotic cells at given concentration (nM),"Table 4, serum, 48 hr, 0.1 nM",6.9%
same,% apoptotic cells at given concentration (nM),"Table 4, serum, 48 hr, 0.3 nM",6.8%
same,% apoptotic cells at given concentration (nM),"Table 4, serum, 48 hr, 1 nM",6.4%
same,% apoptotic cells at given concentration (nM),"Table 4, serum, 48 hr, 3 nM",7.0%
same,% apoptotic cells at given concentration (nM),"Table 4, serum, 48 hr, 10 nM",7.1%
same,% apoptotic cells at given concentration (nM),"Table 4, serum, 48 hr, 30 nM",29.4%
same,% apoptotic cells at given concentration (nM),"Table 4, serum, 48 hr, 100 nM",90.9%
same,% apoptotic cells at given concentration (nM),"Table 4, serum, 48 hr, 300 nM",93.0%
same,% apoptotic cells at given concentration (nM),"Table 4, serum, 48 hr, 1000 nM",93.2%
same,% apoptotic cells at given concentration (nM),"Table 4, serum, 48 hr, 3000 nM",94.6%
same,% apoptotic cells at given concentration (nM),[11],94.2%
same,% apoptotic cells at given concentration (nM),[12],8.8%
same,% apoptotic cells at given concentration (nM),[13],8.5%
same,% apoptotic cells at given concentration (nM),[14],8.6%
same,% apoptotic cells at given concentration (nM),[15],15.9%
same,% apoptotic cells at given concentration (nM),[16],86.5%
same,% apoptotic cells at given concentration (nM),[17],90.7%
same,% apoptotic cells at given concentration (nM),[18],91.7%
same,% apoptotic cells at given concentration (nM),[19],93.1%
same,% apoptotic cells at given concentration (nM),"Table 5, medium, 3000 nM",93.7%
"CC(C)[C@]12O[C@H]1[C@@H]1O[C@]13[C@]1(O[C@H]1C[C@H]1C4=C(CC[C@@]13C)C(=O)OC4)[C@@H]2OC(=O)CCC(=O)O [PG490-88, triptolide-14-succinate, reference compound]",% apoptotic cells at given concentration (nM),[1],89.2%
same,% apoptotic cells at given concentration (nM),[2],7.8%
same,% apoptotic cells at given concentration (nM),[3],8.1%
same,% apoptotic cells at given concentration (nM),[4],7.8%
same,% apoptotic cells at given concentration (nM),[5],9.1%
same,% apoptotic cells at given concentration (nM),[6],51.5%
same,% apoptotic cells at given concentration (nM),[7],92.1%
same,% apoptotic cells at given concentration (nM),[8],93.9%
same,% apoptotic cells at given concentration (nM),[9],94.1%
same,% apoptotic cells at given concentration (nM),[10],95.1%
same,% apoptotic cells at given concentration (nM),"Table 3, medium only, 10000 nM",93.8%
same,% apoptotic cells at given concentration (nM),"Table 4, medium, 10000 nM",89.7%
same,% apoptotic cells at given concentration (nM),"Table 4, serum, 0 hr, 10000 nM",82.9%
same,% apoptotic cells at given concentration (nM),"Table 4, serum, 48 hr, 0.03 nM",6.6%
same,% apoptotic cells at given concentration (nM),"Table 4, serum, 48 hr, 0.1 nM",6.5%
same,% apoptotic cells at given concentration (nM),"Table 4, serum, 48 hr, 0.3 nM",7.0%
same,% apoptotic cells at given concentration (nM),"Table 4, serum, 48 hr, 1 nM",6.0%
same,% apoptotic cells at given concentration (nM),"Table 4, serum, 48 hr, 3 nM",6.2%
same,% apoptotic cells at given concentration (nM),"Table 4, serum, 48 hr, 10 nM",6.2%
same,% apoptotic cells at given concentration (nM),"Table 4, serum, 48 hr, 30 nM",6.8%
same,% apoptotic cells at given concentration (nM),"Table 4, serum, 48 hr, 100 nM",30.5%
same,% apoptotic cells at given concentration (nM),"Table 4, serum, 48 hr, 300 nM",89.6%
same,% apoptotic cells at given concentration (nM),"Table 4, serum, 48 hr, 1000 nM",92.6%
same,% apoptotic cells at given concentration (nM),"Table 4, serum, 48 hr, 3000 nM",92.8%
same,% apoptotic cells at given concentration (nM),[11],93.9%
same,% apoptotic cells at given concentration (nM),[12],8.6%
same,% apoptotic cells at given concentration (nM),[13],9.3%
same,% apoptotic cells at given concentration (nM),[14],8.7%
same,% apoptotic cells at given concentration (nM),[15],7.8%
same,% apoptotic cells at given concentration (nM),[16],23.3%
same,% apoptotic cells at given concentration (nM),[17],88.4%
same,% apoptotic cells at given concentration (nM),[18],90.5%
same,% apoptotic cells at given concentration (nM),[19],91.7%
same,% apoptotic cells at given concentration (nM),"Table 5, medium, 3000 nM",64.8%
same,"Conversion, as relative ED50 compared to triptolide (%)",[20],2%
same,"Conversion, as relative ED50 compared to triptolide (%)",[21],2%
same,"Conversion, as relative ED50 compared to triptolide (%)",[22],18%
same,"Conversion, as relative ED50 compared to triptolide (%)",[23],43%
same,EC50,[20],2580 nM
same,EC50,[21],2270 nM
same,EC50,[22],328 nM
same,EC50,[23],147 nM
"CCNC(=O)O[C@@H]1[C@@]2(C(C)C)O[C@H]2[C@@H]2O[C@]23[C@]12O[C@H]2C[C@H]1C2=C(CC[C@@]13C)C(=O)OC2 [PG666, Triptolide 14-Ethyl Carbamate]",% apoptotic cells at given concentration (nM),[1],93.6%
same,% apoptotic cells at given concentration (nM),[2],13.4%
same,% apoptotic cells at given concentration (nM),[3],14.4%
same,% apoptotic cells at given concentration (nM),[4],14.0%
same,% apoptotic cells at given concentration (nM),[5],10.1%
same,% apoptotic cells at given concentration (nM),[6],11.0%
same,% apoptotic cells at given concentration (nM),[7],20.6%
same,% apoptotic cells at given concentration (nM),[8],91.0%
same,% apoptotic cells at given concentration (nM),[9],92.9%
same,% apoptotic cells at given concentration (nM),[10],93.5%
same,% apoptotic cells at given concentration (nM),"Table 3, medium only, 10000 nM",94.3%
same,% apoptotic cells at given concentration (nM),"Table 4, medium, 10000 nM",92.6%
same,% apoptotic cells at given concentration (nM),"Table 4, serum, 0 hr, 10000 nM",87.2%
same,% apoptotic cells at given concentration (nM),"Table 4, serum, 48 hr, 0.03 nM",39.9%
same,% apoptotic cells at given concentration (nM),"Table 4, serum, 48 hr, 0.1 nM",40.7%
same,% apoptotic cells at given concentration (nM),"Table 4, serum, 48 hr, 0.3 nM",40.8%
same,% apoptotic cells at given concentration (nM),"Table 4, serum, 48 hr, 1 nM",41.3%
same,% apoptotic cells at given concentration (nM),"Table 4, serum, 48 hr, 3 nM",39.8%
same,% apoptotic cells at given concentration (nM),"Table 4, serum, 48 hr, 10 nM",39.8%
same,% apoptotic cells at given concentration (nM),"Table 4, serum, 48 hr, 30 nM",39.1%
same,% apoptotic cells at given concentration (nM),"Table 4, serum, 48 hr, 100 nM",40.2%
same,% apoptotic cells at given concentration (nM),"Table 4, serum, 48 hr, 300 nM",44.5%
same,% apoptotic cells at given concentration (nM),"Table 4, serum, 48 hr, 1000 nM",88.6%
same,% apoptotic cells at given concentration (nM),"Table 4, serum, 48 hr, 3000 nM",96.8%
same,% apoptotic cells at given concentration (nM),[11],92.3%
same,% apoptotic cells at given concentration (nM),[12],9.8%
same,% apoptotic cells at given concentration (nM),[13],10.9%
same,% apoptotic cells at given concentration (nM),[14],10.4%
same,% apoptotic cells at given concentration (nM),[15],10.2%
same,% apoptotic cells at given concentration (nM),[16],9.5%
same,% apoptotic cells at given concentration (nM),[17],14.9%
same,% apoptotic cells at given concentration (nM),[18],87.7%
same,% apoptotic cells at given concentration (nM),[19],91.0%
same,% apoptotic cells at given concentration (nM),"Table 5, medium, 1 nM",13.9%
same,% apoptotic cells at given concentration (nM),"Table 5, medium, 3 nM",13.1%
same,% apoptotic cells at given concentration (nM),"Table 5, medium, 10 nM",13.4%
same,% apoptotic cells at given concentration (nM),"Table 5, medium, 30 nM",13.0%
same,% apoptotic cells at given concentration (nM),"Table 5, medium, 100 nM",13.2%
same,% apoptotic cells at given concentration (nM),"Table 5, medium, 300 nM",14.2%
same,% apoptotic cells at given concentration (nM),"Table 5, medium, 1000 nM",14.1%
same,% apoptotic cells at given concentration (nM),"Table 5, medium, 3000 nM",92.1%
same,apoptotic activity (in words),[24],more active than PG688
same,concentration for equal apoptotic activity relative to PG490 (triptolide),[24],~10 fold

# Source: patent US20110076293A1, “TRIPTOLIDE DERIVATIVES FOR MODULATION OF APOPTOSIS AND IMMUNOSUPPRESSION” (priority 2002, published 2011)
